The record followed here is the NIST ThermoML archive (doi:10.1016/j.jct.2014.08.010).

For data set [1] the following is noted: DTA.
The nature of data set [2]: Molar enthalpy of transition or fusion. To be noted: DSC.

± gives the expanded uncertainty stated by the source.

On to `CCCCCCCc1ccc(-c2ccc(C#N)cc2)cc1` [4'-heptyl-4-biphenylcarbonitrile], for which the Triple point temperature in data set [1] (Crystal) came to 305.15 ± 0.5 K; in data set [1] (Nematic liquid crystal), 316.15 ± 0.5 K. In addition, the “Molar enthalpy of transition or fusion” value in data set [2] (Crystal) is 5.82 ± 0.172 kcal/mol; in data set [2] (Nematic liquid crystal), 0.198 ± 0.0382 kcal/mol.

As to `CCCCCc1ccc(-c2ccc(C#N)cc2)cc1` [4'-n-pentyl-4-biphenylcarbonitrile], the figures for the Triple point temperature in data set [1] (Crystal) and in data set [1] (Nematic liquid crystal) were 297.55 ± 0.5 K and 308.65 ± 0.5 K, respectively. In addition, the “Molar enthalpy of transition or fusion” value in data set [2] (Crystal) worked out at 3.26 ± 0.108 kcal/mol; in data set [2] (Nematic liquid crystal) it was 0.117 ± 0.0359 kcal/mol.
